The results in this text go back to ChEMBL document CHEMBL5647694, “Novel orally bioavailable EZH1/2 dual inhibitors with greater antitumor efficacy than an EZH2 selective inhibitor” (Cancer Sci, 2017).

Activity calls are given as the source filed them. The calls are words filed in the database; no cut-off is given here.

Data set [1] in a line: Toxicity in Crl:CD Sprague-Dawley rat assessed as hypertrophy of zona fasciculata/reticularis cells in adrenal at 100 mg/kg, po administered daily for 14 days by hematoxylin and eosin staining based analysis. Type of data set: organism-based. As to conditions: in vivo, 336 h, time 14 day.
Data set [2] in a line: Toxicity in Crl:CD Sprague-Dawley rat assessed as reticulocyte percentile in blood at 100 mg/kg, po administered daily for 14 days (reference value: 4.68+/-0.802%). The class given is organism-based. To be noted: in vivo, 336 h, time 14 day.
The nature of data set [3]: Toxicity in Crl:CD Sprague-Dawley rat assessed as creatinine level in blood at 100 mg/kg, po administered daily for 14 days (reference value: 0.223 +/-[…]). Type of data set: organism-based. To be noted: in vivo, 336 h, time 14 day.
A short description of data set [4]: Toxicity in Crl:CD Sprague-Dawley rat assessed as creatine kinase level in blood at 100 mg/kg, po administered daily for 14 days (reference value: 164 +/-5U/L). The class given is organism-based. To be noted: in vivo, 336 h, time 14 day.
The nature of data set [5]: Cmax in Crl:CD Sprague-Dawley rat at 100 mg/kg, po administered daily for 14 days by LC/MS/MS analysis. To be noted: in vivo, 336 h, time 14 day. The class given is ADME, organism-based.
Data set [6] concerns KARPAS-422. The data set can be described thus: Antitumor activity against human KARPAS-422 cells xenografted in CB17/Icr-Prkdcscid/CrlCrlj mouse assessed as inhibition of tumor growth at 50 mg/kg, po BID for 14 days. Type of data set: functional, organism-based. As to conditions: time 14.0 day. A general note: Xenograft models place foreign cells or tissue in a host animal.

The nature of data set [7]: Toxicity in Crl:CD Sprague-Dawley rat assessed as hemoglobin level in blood at 100 mg/kg, po administered daily for 14 days (reference value: 13.5 +/-0.386 g/dL). As to conditions: in vivo, 336 h, time 14 day. The class given is organism-based.
Data set [8] is described as follows: Toxicity in Crl:CD Sprague-Dawley rat assessed as decrease in food consumption at 100 mg/kg, po administered daily for 14 days. The class given is organism-based. As to conditions: in vivo, 336 h, time 14 day.
A short description of data set [9]: Cmax in BALB/c mouse at 6.3 mg/kg administered as single dose. The class given is ADME, organism-based. As to conditions: in vivo, route po.
A short description of data set [10]: Toxicity in Crl:CD Sprague-Dawley rat assessed as mean corpuscular volume in blood at 100 mg/kg, po administered daily for 14 days (reference value: 61.5 +/-1.92 fL). The class given is organism-based. As to conditions: in vivo, 336 h, time 14 day.
In data set [11] the test system is HCT-15. The data set can be described thus: Antitumor activity against human HCT-15 cells assessed as cell growth inhibition treated for 10 to 15 days. As to conditions: time 10-15 day. Type of data set: functional.
In data set [12] the test system is Jurkat. Briefly: Antitumor activity against human Jurkat cells clone E6-1 assessed as cell growth inhibition treated for 10 to 15 days. To be noted: time 10-15 day. Type of data set: functional.
Data set [13] deals with NAMALVA. The data set can be described thus: Antitumor activity against human NAMALVA cells assessed as cell growth inhibition treated for 10 to 15 days. Type of data set: functional. To be noted: time 10-15 day.
For data set [14], the system named is A704. The data set can be described thus: Antitumor activity against human A704 cells assessed as cell growth inhibition treated for 10 to 15 days. As to conditions: time 10-15 day. The class given is functional.
Data set [15] has as its target Histone-lysine N-methyltransferase 2B (Homo sapiens, UniProt Q9UMN6). The data set can be described thus: Inhibition of human MLL4 using Core Histone and [3H]SAM as substrate incubated for 30 mins to 1 hr by HotSpot kinase assay.
Data set [16] relates to K562. The data set can be described thus: Antitumor activity against human K562 cells assessed as cell growth inhibition treated for 10 to 15 days. Type of data set: functional. As to conditions: time 10-15 day.
Data set [17] addresses Histone-lysine N-methyltransferase NSD2 (Homo sapiens, UniProt O96028). Briefly: Inhibition of human NSD2 using Nucleosomes and [3H]SAM as substrate incubated for 30 mins to 1 hr by HotSpot kinase assay.
In data set [18] the test system is TGBC11TKB. The data set can be described thus: Antitumor activity against human TGBC11TKB cells assessed as cell growth inhibition treated for 10 to 15 days. Type of data set: functional. To be noted: time 10-15 day.
Data set [19] has as its system MDA-MB-436. Briefly: Antitumor activity against human MDA-MB-436 cells assessed as cell growth inhibition treated for 10 to 15 days. The class given is functional. As to conditions: time 10-15 day.
Data set [20] is described as follows: Antitumor activity against human COV434 cells assessed as cell growth inhibition treated for 10 to 15 days. The class given is functional. To be noted: time 10-15 day.
Data set [21] has as its target Histone-lysine N-methyltransferase 2A (Homo sapiens, UniProt Q03164). The data set can be described thus: Inhibition of human MLL1 using Nucleosomes and [3H]SAM as substrate incubated for 30 mins to 1 hr by HotSpot kinase assay.
Data set [22] can be described thus: Antitumor activity against human EB1 cells assessed as cell growth inhibition treated for 10 to 15 days. Type of data set: functional. To be noted: time 10-15 day.
Data set [23] concerns SU-DHL-6. The data set can be described thus: Antitumor activity against human SU-DHL-6 cells assessed as cell growth inhibition treated for 10 to 15 days. The class given is functional. To be noted: time 10-15 day.
Data set [24] deals with KURAMOCHI
Briefly: Antitumor activity against human KURAMOCHI cells assessed as cell growth inhibition treated for 10 to 15 days. Type of data set: functional. As to conditions: time 10-15 day.

Data set [25] has as its system AGS. Briefly: Antitumor activity against human AGS cells assessed as cell growth inhibition treated for 10 to 15 days. Type of data set: functional. As to conditions: time 10-15 day.
The test system of data set [26] is TOV21G. Briefly: Antitumor activity against human TOV-21G cells assessed as cell growth inhibition treated for 10 to 15 days. The class given is functional. As to conditions: time 10-15 day.
Data set [27] can be described thus: Antitumor activity against human OVISE cells assessed as cell growth inhibition treated for 10 to 15 days. The class given is functional. To be noted: time 10-15 day.
The nature of data set [28]: Antitumor activity against human HuT 102 cells assessed as cell growth inhibition treated for 10 to 15 days. The class given is functional. To be noted: time 10-15 day.
Data set [29] concerns the target N-lysine methyltransferase KMT5A (Homo sapiens, UniProt Q9NQR1). Briefly: Inhibition of human SET8 using Nucleosomes and [3H]SAM as substrate incubated for 30 mins to 1 hr by HotSpot kinase assay.
Data set [30] has as its system HCC1937. Briefly: Antitumor activity against human HCC1937 cells assessed as cell growth inhibition treated for 10 to 15 days. Type of data set: functional. To be noted: time 10-15 day.
Data set [31] has as its target Histone-lysine N-methyltransferase NSD2 (Homo sapiens, UniProt O96028, T1150A). The data set can be described thus: Inhibition of human NSD2 T1150A mutant using Nucleosomes and [3H]SAM as substrate incubated for 30 mins to 1 hr by HotSpot kinase assay.
Data set [32] concerns Hs 766. Briefly: Antitumor activity against human Hs766T cells assessed as cell growth inhibition treated for 10 to 15 days. The class given is functional. To be noted: time 10-15 day.
Data set [33] concerns A2780. The data set can be described thus: Antitumor activity against human A2780 cells assessed as cell growth inhibition treated for 10 to 15 days. As to conditions: time 10-15 day. Type of data set: functional.
Data set [34] has as its system ECC10. Briefly: Antitumor activity against human ECC10 cells assessed as cell growth inhibition treated for 10 to 15 days. The class given is functional. As to conditions: time 10-15 day.
Data set [35] concerns UACC-812. Briefly: Antitumor activity against human UACC-812 cells assessed as cell growth inhibition treated for 10 to 15 days. Type of data set: functional. As to conditions: time 10-15 day.
Data set [36] deals with OVCAR-3. Briefly: Antitumor activity against human OVCAR-3 cells assessed as cell growth inhibition treated for 10 to 15 days. The class given is functional. To be noted: time 10-15 day.
The subject of data set [37] is ZR-75-1. The data set can be described thus: Antitumor activity against human ZR-75-1 cells assessed as cell growth inhibition treated for 10 to 15 days. Type of data set: functional. As to conditions: time 10-15 day.
Data set [38] concerns HCC1419. The data set can be described thus: Antitumor activity against human HCC1419 cells assessed as cell growth inhibition treated for 10 to 15 days. Type of data set: functional. To be noted: time 10-15 day.
Data set [39] deals with ATN-1. The data set can be described thus: Antitumor activity against human ATN-1 cells assessed as cell growth inhibition treated for 10 to 15 days. The class given is functional. As to conditions: time 10-15 day.
The nature of data set [40]: Antitumor activity against human BCP-1 cells assessed as cell growth inhibition treated for 10 to 15 days. The class given is functional. To be noted: time 10-15 day.
In data set [41] the test system is HT. Briefly: Antitumor activity against human HT cells assessed as cell growth inhibition treated for 10 to 15 days. To be noted: time 10-15 day. The class given is functional.
Data set [42] relates to NALM-6. Briefly: Antitumor activity against human NALM-6 cells assessed as cell growth inhibition treated for 10 to 15 days. Type of data set: functional. To be noted: time 10-15 day.
For data set [43], the system named is GA-10. Briefly: Antitumor activity against human GA-10 cells assessed as cell growth inhibition treated for 10 to 15 days. The class given is functional. To be noted: time 10-15 day.

Chain of Histone-lysine N-methyltransferase NSD2 (Homo sapiens, UniProt O96028, T1150A) (O96028 whole entry T1150A): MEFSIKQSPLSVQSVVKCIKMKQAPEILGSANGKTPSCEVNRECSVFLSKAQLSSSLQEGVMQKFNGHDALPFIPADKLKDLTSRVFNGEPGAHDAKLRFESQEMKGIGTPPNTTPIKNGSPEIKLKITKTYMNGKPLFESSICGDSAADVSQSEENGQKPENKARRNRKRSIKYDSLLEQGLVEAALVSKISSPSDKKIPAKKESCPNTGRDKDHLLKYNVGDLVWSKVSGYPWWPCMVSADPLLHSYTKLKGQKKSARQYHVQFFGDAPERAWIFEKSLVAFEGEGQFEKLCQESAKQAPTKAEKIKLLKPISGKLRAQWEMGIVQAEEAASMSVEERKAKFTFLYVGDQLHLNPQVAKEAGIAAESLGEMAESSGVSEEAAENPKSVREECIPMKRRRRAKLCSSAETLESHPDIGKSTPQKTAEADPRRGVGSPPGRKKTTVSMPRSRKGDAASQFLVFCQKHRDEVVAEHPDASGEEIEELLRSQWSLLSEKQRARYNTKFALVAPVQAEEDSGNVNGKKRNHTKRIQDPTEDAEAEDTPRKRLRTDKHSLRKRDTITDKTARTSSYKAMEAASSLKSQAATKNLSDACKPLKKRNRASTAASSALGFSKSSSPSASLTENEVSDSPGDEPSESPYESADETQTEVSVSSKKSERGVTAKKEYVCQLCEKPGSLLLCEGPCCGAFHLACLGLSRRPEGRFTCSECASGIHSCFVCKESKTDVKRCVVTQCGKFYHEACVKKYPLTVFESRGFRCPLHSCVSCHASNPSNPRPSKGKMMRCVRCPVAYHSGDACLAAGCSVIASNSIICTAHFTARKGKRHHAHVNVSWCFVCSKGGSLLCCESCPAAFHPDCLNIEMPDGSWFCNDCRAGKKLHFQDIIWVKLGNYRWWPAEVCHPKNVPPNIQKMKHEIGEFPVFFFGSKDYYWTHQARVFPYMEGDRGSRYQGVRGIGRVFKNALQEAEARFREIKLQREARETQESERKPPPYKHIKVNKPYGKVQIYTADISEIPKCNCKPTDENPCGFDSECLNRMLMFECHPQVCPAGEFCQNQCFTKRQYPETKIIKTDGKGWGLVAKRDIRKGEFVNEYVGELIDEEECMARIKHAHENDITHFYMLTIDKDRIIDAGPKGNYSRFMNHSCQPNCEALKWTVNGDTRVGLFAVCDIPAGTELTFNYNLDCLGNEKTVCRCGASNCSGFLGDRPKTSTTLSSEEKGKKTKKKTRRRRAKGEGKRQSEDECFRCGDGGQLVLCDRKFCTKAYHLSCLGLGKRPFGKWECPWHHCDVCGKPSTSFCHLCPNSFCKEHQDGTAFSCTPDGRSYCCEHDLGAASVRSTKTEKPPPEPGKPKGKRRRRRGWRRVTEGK
Chain of Histone-lysine N-methyltransferase 2B (Q9UMN6 whole entry): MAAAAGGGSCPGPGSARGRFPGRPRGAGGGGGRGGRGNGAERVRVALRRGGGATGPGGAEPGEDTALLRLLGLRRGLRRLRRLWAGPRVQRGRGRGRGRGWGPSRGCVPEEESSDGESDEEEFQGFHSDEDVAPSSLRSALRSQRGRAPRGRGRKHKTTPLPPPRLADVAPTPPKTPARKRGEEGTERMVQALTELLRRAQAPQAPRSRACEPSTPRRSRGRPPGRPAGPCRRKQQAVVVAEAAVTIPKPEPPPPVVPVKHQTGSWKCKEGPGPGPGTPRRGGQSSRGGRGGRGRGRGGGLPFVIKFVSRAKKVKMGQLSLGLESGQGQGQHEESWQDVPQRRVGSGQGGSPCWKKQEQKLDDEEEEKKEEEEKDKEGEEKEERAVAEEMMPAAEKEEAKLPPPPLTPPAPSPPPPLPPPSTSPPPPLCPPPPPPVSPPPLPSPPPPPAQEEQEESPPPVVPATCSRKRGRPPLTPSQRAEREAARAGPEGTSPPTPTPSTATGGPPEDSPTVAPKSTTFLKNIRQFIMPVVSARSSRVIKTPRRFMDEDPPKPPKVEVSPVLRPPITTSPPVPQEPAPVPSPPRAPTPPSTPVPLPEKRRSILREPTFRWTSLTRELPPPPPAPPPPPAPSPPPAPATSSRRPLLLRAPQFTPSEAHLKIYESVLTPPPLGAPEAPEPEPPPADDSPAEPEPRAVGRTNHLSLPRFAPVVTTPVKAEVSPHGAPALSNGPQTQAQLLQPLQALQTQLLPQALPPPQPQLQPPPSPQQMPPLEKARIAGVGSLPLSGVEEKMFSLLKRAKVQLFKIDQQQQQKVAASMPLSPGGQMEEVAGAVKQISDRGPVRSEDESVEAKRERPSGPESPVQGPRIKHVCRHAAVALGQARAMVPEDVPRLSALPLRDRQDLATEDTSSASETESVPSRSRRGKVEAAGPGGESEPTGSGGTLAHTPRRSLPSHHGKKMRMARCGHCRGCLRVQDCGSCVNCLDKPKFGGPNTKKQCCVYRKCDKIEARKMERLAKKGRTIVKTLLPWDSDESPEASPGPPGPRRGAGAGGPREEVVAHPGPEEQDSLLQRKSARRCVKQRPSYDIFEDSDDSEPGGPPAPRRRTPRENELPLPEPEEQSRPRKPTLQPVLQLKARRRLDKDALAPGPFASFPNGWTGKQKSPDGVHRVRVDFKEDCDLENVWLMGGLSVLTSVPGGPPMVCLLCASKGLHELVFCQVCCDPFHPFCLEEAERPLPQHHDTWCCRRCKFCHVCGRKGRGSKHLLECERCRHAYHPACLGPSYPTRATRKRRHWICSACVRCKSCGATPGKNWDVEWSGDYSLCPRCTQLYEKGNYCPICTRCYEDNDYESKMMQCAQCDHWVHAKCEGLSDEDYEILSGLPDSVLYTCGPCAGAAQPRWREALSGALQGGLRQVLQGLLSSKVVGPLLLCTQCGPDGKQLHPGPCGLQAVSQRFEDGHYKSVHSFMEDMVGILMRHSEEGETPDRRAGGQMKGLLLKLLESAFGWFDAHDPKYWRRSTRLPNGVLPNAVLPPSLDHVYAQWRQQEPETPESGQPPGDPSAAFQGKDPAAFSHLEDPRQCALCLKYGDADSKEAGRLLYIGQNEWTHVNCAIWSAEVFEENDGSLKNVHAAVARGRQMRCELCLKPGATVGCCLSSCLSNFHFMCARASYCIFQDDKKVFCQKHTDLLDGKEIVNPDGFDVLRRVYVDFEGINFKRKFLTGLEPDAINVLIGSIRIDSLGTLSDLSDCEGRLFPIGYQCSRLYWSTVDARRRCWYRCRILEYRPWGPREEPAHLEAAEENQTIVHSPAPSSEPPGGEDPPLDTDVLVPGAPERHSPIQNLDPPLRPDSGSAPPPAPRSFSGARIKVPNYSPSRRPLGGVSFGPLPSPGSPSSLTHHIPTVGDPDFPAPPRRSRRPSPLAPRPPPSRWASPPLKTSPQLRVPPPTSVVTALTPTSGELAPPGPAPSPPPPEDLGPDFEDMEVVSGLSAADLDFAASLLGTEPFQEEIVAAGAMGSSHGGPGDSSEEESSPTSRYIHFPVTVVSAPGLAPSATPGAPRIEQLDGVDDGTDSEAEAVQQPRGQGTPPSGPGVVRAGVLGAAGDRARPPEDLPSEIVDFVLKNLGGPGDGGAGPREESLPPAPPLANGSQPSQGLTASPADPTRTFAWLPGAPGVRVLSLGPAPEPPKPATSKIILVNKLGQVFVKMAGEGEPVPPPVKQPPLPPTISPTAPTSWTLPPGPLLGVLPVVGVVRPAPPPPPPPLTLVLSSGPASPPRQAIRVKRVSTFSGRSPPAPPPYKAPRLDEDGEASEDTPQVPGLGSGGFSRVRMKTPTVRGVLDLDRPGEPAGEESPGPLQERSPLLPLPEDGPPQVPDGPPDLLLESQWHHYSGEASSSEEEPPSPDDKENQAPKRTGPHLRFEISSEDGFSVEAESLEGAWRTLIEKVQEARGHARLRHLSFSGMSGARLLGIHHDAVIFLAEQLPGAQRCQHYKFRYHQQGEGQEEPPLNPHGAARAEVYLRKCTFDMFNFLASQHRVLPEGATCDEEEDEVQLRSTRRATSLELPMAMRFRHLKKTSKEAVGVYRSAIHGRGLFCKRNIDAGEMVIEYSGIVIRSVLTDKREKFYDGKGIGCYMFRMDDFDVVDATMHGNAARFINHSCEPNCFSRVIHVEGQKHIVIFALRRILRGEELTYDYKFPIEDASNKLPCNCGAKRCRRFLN
Chain of N-lysine methyltransferase KMT5A (Q9NQR1 whole entry): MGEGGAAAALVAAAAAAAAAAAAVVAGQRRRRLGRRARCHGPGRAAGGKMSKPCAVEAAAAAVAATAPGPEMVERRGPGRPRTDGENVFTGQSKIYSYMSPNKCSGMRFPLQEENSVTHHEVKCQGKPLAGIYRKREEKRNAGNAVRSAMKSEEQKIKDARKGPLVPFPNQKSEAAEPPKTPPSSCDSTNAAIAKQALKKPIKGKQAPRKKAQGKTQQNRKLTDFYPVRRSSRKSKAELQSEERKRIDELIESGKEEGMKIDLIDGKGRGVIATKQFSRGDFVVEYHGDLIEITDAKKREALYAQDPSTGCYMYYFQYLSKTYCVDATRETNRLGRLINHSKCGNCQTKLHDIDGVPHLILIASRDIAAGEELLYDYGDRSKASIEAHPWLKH
Chain of Histone-lysine N-methyltransferase NSD2 (Homo sapiens, UniProt O96028) (O96028 whole entry): as the sequence (O96028 whole entry T1150A) above, with A1150T counted along it

What is called Cmax is the highest concentration seen after dosing. `Cc1cc(C)c(CNC(=O)c2cc(Br)c3c(c2C)O[C@@](C)([C@H]2CC[C@H](N(C)C)CC2)O3)c(=O)[nH]1`: the Activity result in data set [1] was “Toxic”; in [2], 4.48%; in [3], 0.238 mg/dL; in data set [4] it was 186 U/L; in [7], 13 g/dL; in [8], “Toxic”. Moreover, in [10], the Activity is reported as 60.9 fL. In addition, the Cmax in [5] turned out to be 2440 nM; in data set [9] it was 450 nM. In data set [6], the result was Active.
A word on the GI50: it is the concentration at which growth is held to half of that of the control. As a reminder, the IC50 is the concentration that gives 50% inhibition. As for `Cc1cc(C)c(CNC(=O)c2cc(Cl)c3c(c2C)O[C@@](C)([C@H]2CC[C@H](N(C)C)CC2)O3)c(=O)[nH]1` [VALEMETOSTAT], the 50% growth inhibitory concentration (GI50) is > 1000 nM in [11]; > 1000 nM in [12]; > 1000 nM in data set [13]; > 1000 nM in data set [14]; 788 nM in data set [16]; 86.7 nM in data set [18]. Further, the GI50 in data set [19] is > 1000 nM; in data set [20] it was 1.5 nM; in data set [22], 48.2 nM; in data set [23], 0.68 nM; in data set [24], > 1000 nM; in [25] it was > 1000 nM. For the same compound, the 50% growth inhibitory concentration (GI50) in [26] is 55.5 nM; in [27] it was > 1000 nM; in data set [28], 0.987 nM; in [30], > 1000 nM; in [32], > 1000 nM; in [33], 36 nM. Further, the GI50 in data set [34] is 84.5 nM; in data set [35] it was > 1000 nM; in data set [36], > 1000 nM; in [37] it was 138 nM; in [38] it was > 1000 nM; in [39], 43.8 nM. Moreover, the concentration for 50% growth inhibition (GI50) was > 1000 nM in data set [40], 1.74 nM in data set [41], > 1000 nM in data set [42] and 14.9 nM in data set [43]. The IC50 in [15], in data set [17], in data set [21], in data set [29] and in data set [31] was 100000 nM in each case.
